One assay deals with SK-MEL28 cells. The assay is described as follows: Inhibition of proliferation on cultivated human melanoma cells (SK-MEL28), AlamarBlue. It is filed as cell-based. As to conditions: SK-MEL-28, SK-MEL28, 72 hours incubation, read-out: EC50 value, cellular SK-MEL28 assay. As to the method: (§1) To measure proliferation on cultivated human tumour cells, cells of melanoma cell line SK-MEL28 [American Type Culture Collection (ATCC)] are cultivated in MEM medium, supplemented with 10% foetal calf serum, 2% sodium bicarbonate, 1 mM sodium pyruvate, 1% non-essential amino acids (e.g. from Cambrex, #BE13-114E) and 2 mM glutamine. SK-MEL28 cells are placed in 96-well flat-bottomed plates at a density of 2500 cells per well in supplemented MEM medium (see above) and incubated overnight in an incubator (at 37° C. and 5% CO2). The active substances are added to the cells in various concentrations so as to cover a range of concentrations from 50 μM to 3.2 nM. If necessary the initial concentration is changed from 50 μM to 10 μM or 2 μM and further dilution (to 0.6 nM or 0.12 nM) is carried out accordingly. After a further 72 hours incubation, 20 μl AlamarBlue reagent (Serotec Ltd., #BUF012B) is added to each well, and the cells are incubated for a further 3-6 hours. The colour change of the AlamarBlue reagent is determined in a fluorescence spectrophotometer (e.g. Gemini, Molecular Devices). EC50 values are calculated using the software programme (GraphPadPrizm).
On the technique in general: The colour change of resazurin is a common sign of viable cells or microbes.

The subject of the next assay is A375 cells. As to the kind of experiment: Inhibition of proliferation on cultivated human melanoma cells (A375), AlamarBlue. The class given is cell-based. As to conditions: A-375, A375, method as for SK-MEL28, read-out: EC50 value, cellular A375 assay. As to the method:
as §1
To measure proliferation on cultivated human tumour cells, cells of melanoma cell line A375 [American Type Culture Collection (ATCC)] are cultivated in MEM medium, supplemented with 10% foetal calf serum and 2% sodium bicarbonate. Test substances are tested on A375 cells according to the method described for SK-MEL28 cells (see above).

A further assay addresses B-Raf (V600E) (Homo sapiens, UniProt P15056, V600E). As to the kind of experiment: Kinase test B-Raf (V600E). The class given is biochemical. As to conditions: 250 μM ATP, MEK1 substrate; read-out: IC50 value, B-Raf (V600E) inhibition test. As to the method:
In a dilution series, 10 μL aliquots of test substance solution are placed in a multiwell plate. The dilution series is selected so as to cover a range of concentrations from 2 μM to 0.128 or 0.017 nM. If necessary the initial concentration is changed from 2 μM to 10 or 0.4 μM and further dilution is carried out accordingly. The final concentration of DMSO is 5%. 10 μL of the B-Raf (V600E) kinase solution are pipetted in (containing 2.5 ng B-Raf (V600E)-kinase in 20 mM TrisHCl pH 7.5, 0.1 mM EDTA, 0.1 mM EGTA, 0.286 mM sodium orthovanadate, 10% glycerol, 1 mg/mL bovine serum albumin, 1 mM dithiothreitol) and incubated for 1 h at RT with agitation. The kinase reaction is started by the addition of 20 μL ATP solution [final concentration: 250 μM ATP, 30 mM Tris-HCl pH 7.5, 0.02% Brij, 0.2 mM sodium-orthovanadate, 10 mM magnesium acetate, phosphatase cocktail (Sigma, #P2850, dilution recommended by the manufacturer), 0.1 mM EGTA] and 10 μL MEK1 solution [containing 50 ng biotinylated MEK1 (prepared from purified MEK1 according to standard procedure, e.g. with reagent EZ-Link Sulfo-NHS-LC-Biotin, Pierce, #21335) in 50 mM Hepes pH 7.5, 150 mM NaCl, 10% glycerol, 0.02% Brij-35, 0.2 mM PMSF, 0.2 mM benzamidine] and carried out for 60 min at RT with constant agitation. The reaction is stopped by the addition of 12 μL of a 100 mM EDTA solution and incubated for a further 5 min. 55 μL of the reaction solution are transferred into a streptavidine-coated plate (e.g. Streptawell HighBond, Roche, #11989685001) and shaken gently for 1 h at RT, in order to bind biotinylated MEK1 to the plate. After removal of the liquid the plate is washed five times with 200 μL of 1×PBS, and 100 μL solution of primary antibody plus europium-labelled secondary antibody [Anti Phospho-MEK (Ser217/221), Cell Signaling #9121 and Eu-N1 labeled goat-anti-rabbit antibody, Perkin Elmer #AD01015], the primary antibody is diluted 1:2000 and the secondary antibody is added to 0.4-0.5 μg/mL diluted in Delfia Assay Buffer (Perkin Elmer, #1244-111). After 1 h agitation at RT the solution is poured away and washed five times with 200 μL Delfia Wash Buffer (Perkin Elmer #4010-00101244-114). After the addition of 200 μL Enhancement Solution (Perkin Elmer #4001-00101244-105) the preparation is shaken for 10 min at RT and then measured in a Wallac Victor using the programme “Delfia Time Resolved Fluorescence (Europium)”.
IC50 values are determined from these dosage-activity curves using the software programme (GraphPadPrizm).

Chain of B-Raf (V600E) (P15056 whole entry V600E): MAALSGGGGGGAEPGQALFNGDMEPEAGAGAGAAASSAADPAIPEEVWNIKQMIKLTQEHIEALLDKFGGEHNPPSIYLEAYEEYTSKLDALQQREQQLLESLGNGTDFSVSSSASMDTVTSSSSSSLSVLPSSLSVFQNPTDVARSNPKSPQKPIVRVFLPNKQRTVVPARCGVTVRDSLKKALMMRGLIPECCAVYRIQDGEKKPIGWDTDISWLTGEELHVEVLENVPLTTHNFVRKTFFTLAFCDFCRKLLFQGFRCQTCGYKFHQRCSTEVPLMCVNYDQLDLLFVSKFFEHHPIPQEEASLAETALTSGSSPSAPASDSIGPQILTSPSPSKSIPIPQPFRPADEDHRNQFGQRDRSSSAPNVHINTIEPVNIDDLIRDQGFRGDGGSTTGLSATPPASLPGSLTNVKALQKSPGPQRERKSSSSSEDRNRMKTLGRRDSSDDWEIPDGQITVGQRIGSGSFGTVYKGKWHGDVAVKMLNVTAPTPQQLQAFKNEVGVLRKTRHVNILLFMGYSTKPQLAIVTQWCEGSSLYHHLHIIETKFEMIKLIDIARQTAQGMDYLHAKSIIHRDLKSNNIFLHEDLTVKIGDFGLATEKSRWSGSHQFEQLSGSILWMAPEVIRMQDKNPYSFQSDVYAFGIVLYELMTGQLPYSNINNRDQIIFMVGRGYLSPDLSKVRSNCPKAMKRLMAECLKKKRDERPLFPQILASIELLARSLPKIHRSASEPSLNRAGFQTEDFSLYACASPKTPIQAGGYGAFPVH

By EC50 is commonly meant the concentration giving half of the maximal effect. In the case of `COC(=O)c1cncc(-n2cc(-c3cc(C(=O)Nc4cc(C(C)(C)C)cc(NS(C)(=O)=O)c4OC)ccc3C)nn2)c1` [Example 1a], the EC50 in the assay on SK-MEL28 cells and in the assay with A375 cells was under 5 µM throughout.

Broadly, the IC50 is the concentration at which inhibition is half-maximal. As to `COc1c(NC(=O)c2ccc(C)c(-c3noc(-c4cccnc4)n3)c2)cc(C(C)(C)C)cc1NS(C)(=O)=O` [Example 2a], the IC50 on B-Raf (V600E) is under 500 nM. In addition, the EC50 in the assay with A375 cells is under 5 µM.

With `Cc1ccc(C(=O)Nc2ccc(Cl)c(C(F)(F)F)c2)cc1-c1noc(-c2cccnc2)n1` [Example 2b], on B-Raf (V600E), the IC50 was under 500 nM. Further, in the assay on A375 cells, the EC50 is under 5 µM.

In the case of `COc1c(NC(=O)c2ccc(C)c(-c3nc(-c4cccnc4)no3)c2)cc(C(C)(C)C)cc1NS(C)(=O)=O` [Example 3a], the EC50 in the assay on SK-MEL28 cells and in the assay on A375 cells was under 5 µM throughout. Besides, the IC50 on B-Raf (V600E) is under 500 nM.

As to `Cc1ccc(C(=O)Nc2cc(C(C)(C)C)n[nH]2)cc1-c1csc(-c2cccnc2)n1` [Example 5b-a], the EC50 in the assay on SK-MEL28 cells and with A375 cells was under 5 µM in each case. Also, the IC50 at B-Raf (V600E) was under 500 nM.

For `Cc1ccc(C(=O)Nc2ccc(Cl)c(C(F)(F)F)c2)cc1-c1csc(-c2cccnc2)n1` [Example 5b-b], the IC50 at B-Raf (V600E) was under 500 nM.

Regarding `Cc1ccc(C(=O)Nc2cc(C(C)(C)C)on2)cc1-c1c[nH]c(-c2cccnc2)n1` [Example 6c], the EC50 with SK-MEL28 cells and in the assay on A375 cells was under 5 µM each time.

The values above are taken from patent US20100240657A1, “CHEMICAL COMPOUNDS” (BOEHRINGER INGELHEIM INTERNATIONAL GMBH, priority 2007, published 2010).
